Results on 3 molecules are retold here after article PMC9940101, “Elucidation of the (R)-enantiospecific benzylisoquinoline alkaloid biosynthetic pathways in sacred lotus (Nelumbo nucifera)” (Scientific Reports, 2023).

Broadly, the Km is the concentration of substrate that gives half-maximal velocity.

One assay concerns NnOMT7. The assay is described as follows: LC-MS/MS product quantification, Michaelis-Menten fit. The note with it: 400 µM SAM, 100 mM Tris-HCl pH 7.5, 30 °C, 5 min. It counts as biochemical, Nelumbo nucifera.
In another assay the target is T1, NnOMT1 (Nelumbo nucifera, UniProt A0A3G1RSF0).
T1 construct: gene 6OMT
T1 sequence (A0A3G1RSF0 entry or part of it): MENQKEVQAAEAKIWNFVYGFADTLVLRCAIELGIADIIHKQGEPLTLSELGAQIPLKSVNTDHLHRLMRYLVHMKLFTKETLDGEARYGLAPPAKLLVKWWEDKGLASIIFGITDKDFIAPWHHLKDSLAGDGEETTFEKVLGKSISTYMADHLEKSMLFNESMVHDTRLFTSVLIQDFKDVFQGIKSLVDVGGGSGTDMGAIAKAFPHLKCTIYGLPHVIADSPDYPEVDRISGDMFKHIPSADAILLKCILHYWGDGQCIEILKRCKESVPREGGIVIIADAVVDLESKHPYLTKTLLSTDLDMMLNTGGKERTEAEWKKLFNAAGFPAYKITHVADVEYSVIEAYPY
The assay is described as follows: substrate conversion by LC-MS/MS. It counts as biochemical. To be noted: 100 µM substrate, 200 µM SAM, pH 7.5, 30 °C; 6-O-methylation.

Turning to `Oc1ccc(CC2NCCc3cc(O)c(O)cc32)cc1` (racemic) [(R,S)-norcoclaurine], in the assay on NnOMT7 (6-O-methylation), the Km came to 143 ± 30 µM. In addition, at NnOMT1, the “substrate conversion by LC-MS/MS” value was “NnOMT1 activity with racemic norcoclaurine was higher compared with (S)-norcoclaurine”. As to `COc1cc2c(cc1O)[C@H](Cc1ccc(O)cc1)N(C)CC2` [(S)-N-methylcoclaurine], in the assay on NnOMT7 (7-O-methylation), the Michaelis-Menten constant (Km) was determined as 48 ± 4 µM. Consider `Oc1ccc(C[C@@H]2NCCc3cc(O)c(O)cc32)cc1` [(S)-norcoclaurine], for which the “substrate conversion by LC-MS/MS” value at NnOMT1 was “NnOMT1 activity with racemic norcoclaurine was higher compared with (S)-norcoclaurine”.
